Test results published in patent US12466790B1, “Bis urea-based organoselenium compound and method for treating cancer” (IMAM MOHAMMAD IBN SAUD ISLAMIC UNIVERSITY, priority 2024, dated 2025).

Key:
melanoma cancer (A375) = assay: SRB growth inhibition assay, A375; assay type: cell-based; details: Homo sapiens, A-375, A375 cells, 100 μg/mL, 48 h incubation, read-out: growth inhibition percentage
Procedure: (§1) The antitumor activities of the bis-(organoselanyl urea)aryl agent against all tested cell lines were evaluated by sulphorhodamine-B (SRB) assay. Briefly, cells were seeded at a density of 3×10^3 cells/well in 96-well microtiter plates. They were left to attach for 24 h before incubation with the aforementioned compound. Next, cells were treated with 100 μg/mL for bis-(organoselanyl urea)aryl agent. For each concentration, three wells were used, and incubation was continued for 48 h. DMSO was used as a control vehicle (1% v/v). At the end of incubation, cells were fixed with 20% trichloroacetic acid and stained with 0.4% SRB dye. The optical density (O.D.) of each well was measured spectrophotometrically at 570 nm using an ELISA microplate reader (TECAN Sunrise™, Germany). The mean survival fraction at each drug concentration was calculated as follows: O.D. of the treated cells/O.D. of the control cells. The IC50 (concentration that produces 50% of cell growth inhibition) value of bis-(organoselanyl urea)aryl agent was calculated using sigmoidal dose-response curve-fitting models.

[1] = system: colorectal carcinoma (HCT116); assay: SRB growth inhibition assay, HCT116; assay type: cell-based; details: Homo sapiens, HCT-116, HCT116 cells, 100 μg/mL, 48 h incubation, read-out: growth inhibition percentage
Procedure: as §1

[2] = system: hepatocellular carcinoma (HEPG2); assay: SRB growth inhibition assay, HEPG2; assay type: cell-based; details: Homo sapiens, HEPG2 cells, 100 μg/mL, 48 h incubation, read-out: growth inhibition percentage
Procedure: as §1

[3] = system: human squamous cell carcinoma of the oral tongue (HN9); assay: SRB growth inhibition assay, HN9; assay type: cell-based; details: HN9 cells, 100 μg/mL, 48 h incubation, read-out: growth inhibition percentage
Procedure: as §1

[4] = system: non-small cell lung cancer (A549); assay: SRB growth inhibition assay, A549; assay type: cell-based; details: Homo sapiens, A549 cells, 100 μg/mL, 48 h incubation, read-out: growth inhibition percentage
Procedure: as §1

[5] = system: hepatocellular carcinoma (HuH7); assay: SRB growth inhibition assay, HuH7; assay type: cell-based; details: Homo sapiens, Huh-7, HuH7 cells, 100 μg/mL, 48 h incubation, read-out: growth inhibition percentage
Procedure: as §1

[6] = system: pharynx squamous carcinoma (FaDu); assay: SRB growth inhibition assay, FaDu; assay type: cell-based; details: Homo sapiens, FaDu cells, 100 μg/mL, 48 h incubation, read-out: growth inhibition percentage
Procedure: as §1

[7] = system: breast cancer cell line (MCF7); assay: SRB growth inhibition assay, MCF7; assay type: cell-based; details: Homo sapiens, MCF7 cells, 100 μg/mL, 48 h incubation, read-out: growth inhibition percentage
Procedure: as §1

[8] = system: human skin fibroblast normal cell (HSF); details: 48 h, 100 μg/mL
Procedure: as §1

[9] = system: normal oral epithelial cell line (OEC); details: 48 h, 100 μg/mL
Procedure: as §1

SMILES | inhibition at 100 µg/mL (melanoma cancer (A375)) | inhibition at 100 µg/mL [1] | inhibition at 100 µg/mL [2] | inhibition at 100 µg/mL [3] | inhibition at 100 µg/mL [4] | inhibition at 100 µg/mL [5] | inhibition at 100 µg/mL [6] | inhibition at 100 µg/mL [7] | growth inhibition percentage (safety, normal cells) [8] | growth inhibition percentage (safety, normal cells) [9]
COc1cccc2c1C(=O)c1c(O)c3c(c(O)c1C2=O)C[C@@](O)(C(=O)CO)C[C@@H]3O[C@H]1C[C@H](N)[C@H](O)[C@H](C)O1 [doxorubicin, reference compound] | 78.2% | 64.3% | 55.6% | 51.7% | 39.1% | 68% | 79.3% | 58.6% |  | 
C[Se]c1ccc(NC(=O)Nc2ccc(Cc3ccc(NC(=O)Nc4ccc([Se]C)cc4)cc3)cc2)cc1 [HB190, 1,1′-(methylenebis(4,1-phenylene))bis(3-(4-(methylselanyl)phenyl)urea)] | 66.8% | 85.3% | 76.2% | 74% | 74.4% | 88.6% | 77.3% | 67.7% | 9.76% | 7.32%
